From US12037333B2, “Pyridopyrazine and pyridotriazine inhibitors of influenza virus replication” (priority 2018, dated 2024)

System: Influenza type B (cell culture adapted strain B/Lee/40, ATCC VR-1535)
Experiment: Influenza antiviral assay: inhibition of virus-induced cytopathic effects (CPE) in MDCK cells, XTT dye reduction
Format: cell-based
Settings: strain B/Lee/40, MDCK cells, CPE inhibition at 4 days

Row | Compound | EC50 (Influenza B virus, MDCK, 96 h) [nM] | EC50 [nM]
1 | O=C1c2c(O)c(=O)ccn2N(C23c4ccccc4CC2Cc2cc(F)c(F)cc23)CN1CCc1cccc(F)c1 (stereo not shown) [Compound A28, 1-(2,3-difluoro-9a,10-dihydroindeno[1,2-a]inden-4b(9H)-yl)-3-(3-fluorophenethyl)-5-hydroxy-2,3-dihydro-1H-pyrido[2,1-f][1,2,4]triazine-4,6-dione] | 250 to 375 | 
2 | O=C1c2c(O)c(=O)ccn2N(C23c4ccccc4CC2Cc2cc(F)c(F)cc23)CN1CCc1ccc(F)cc1 (stereo not shown) [Compound A29, 1-(2,3-difluoro-9a,10-dihydroindeno[1,2-a]inden-4b(9H)-yl)-3-(4-fluorophenethyl)-5-hydroxy-2,3-dihydro-1H-pyrido[2,1-f][1,2,4]triazine-4,6-dione] | 250 to 375 | 
3 | CN1CN(C23C(=Cc4ccccc42)Cc2ccccc23)n2ccc(=O)c(O)c2C1=O (stereo not shown) [Compound A30, 5-hydroxy-1-(indeno[1,2-a]inden-4b(9H)-yl)-3-methyl-2,3-dihydro-1H-pyrido[2,1-f][1,2,4]triazine-4,6-dione] | 375 to 500 | 
4 | O=C1c2c(O)c(=O)ccn2N(C23c4ccccc4CC2Cc2ccccc23)CN1Cc1cccc(Cl)c1F (stereo not shown) [Compound A31, 3-(3-chloro-2-fluorobenzyl)-1-(9a,10-dihydroindeno[1,2-a]inden-4b(9H)-yl)-5-hydroxy-2,3-dihydro-1H-pyrido[2,1-f][1,2,4]triazine-4,6-dione] | 375 to 500 | 
5 | CC(CCN1CN(C23c4ccccc4CC2Cc2ccccc23)n2ccc(=O)c(O)c2C1=O)c1ccccc1 (stereo not shown) [Compound A32, 1-(9a,10-dihydroindeno[1,2-a]inden-4b(9H)-yl)-5-hydroxy-3-(3-phenylbutyl)-2,3-dihydro-1H-pyrido[2,1-f][1,2,4]triazine-4,6-dione] |  | < 125
6 | CC(CCN1CN(C23c4ccccc4CC2Cc2ccccc23)n2ccc(=O)c(O)c2C1=O)c1ccccc1 (stereo not shown) [Compound A33] |  | > 500
7 | CCN1CN(C23c4cccc(F)c4CC2Cc2c(F)cccc23)n2ccc(=O)c(O)c2C1=O (stereo not shown) [Compound A34] |  | > 500
8 | CCN1CN(C23c4cccc(F)c4CC2Cc2c(F)cccc23)n2ccc(=O)c(O)c2C1=O (stereo not shown) [Compound A43] |  | < 125
9 | CCN1CN(C23c4ccccc4CC2Cc2c3ccc(F)c2F)n2ccc(=O)c(O)c2C1=O (stereo not shown) [Compound A45] |  | < 125
10 | CN1CN(C23c4ccccc4CC2Cc2c3ccc(F)c2Cl)n2ccc(=O)c(O)c2C1=O (stereo not shown) [Compound A46, 1-(1-Chloro-2-fluoro-9a,10-dihydroindeno[1,2-a]inden-4b(9H)-yl)-5-hydroxy-3-methyl-2,3-dihydro-1H-pyrido[2,1-f][1,2,4]triazine-4,6-dione] | < 125 | 
11 | CCN1CN(C23c4ccccc4CC2Cc2c3ccc(F)c2Cl)n2ccc(=O)c(O)c2C1=O (stereo not shown) [Compound A47] | 125 to 250 | 
12 | CCOC12Cc3ccccc3C1(N1CN(CC)C(=O)c3c(O)c(=O)ccn31)c1ccccc1C2 (stereo not shown) [Compound A48, 1-(9a-Ethoxy-9a,10-dihydroindeno[1,2-a]inden-4b(9H)-yl)-3-ethyl-5-hydroxy-2,3-dihydro-1H-pyrido[2,1-f][1,2,4]triazine-4,6-dione] | < 125 | 
13 | COCCN1CN(C23c4cccc(F)c4CC2Cc2c(F)cccc23)n2ccc(=O)c(O)c2C1=O (stereo not shown) [Compound A49] | < 125 | 
14 | CC(C)N1CN(C23c4ccccc4CC2(C)Cc2ccccc23)n2ccc(=O)c(O)c2C1=O (stereo not shown) [Compound A50, 5-hydroxy-3-isopropyl-1-(9a-methyl-9a,10-dihydroindeno[1,2-a]inden-4b(9H)-yl)-2,3-dihydro-1H-pyrido[2,1-f] [1,2,4] triazine-4,6-dione] | < 125 | 
15 | CCN1CN(C23c4cccc(F)c4CC2(C)Cc2c(F)cccc23)n2ccc(=O)c(O)c2C1=O (stereo not shown) [Compound A51] | < 125 | 
16 | CCN1CN(C23c4ccccc4CC2Cc2ccc(F)cc23)n2ccc(=O)c(O)c2C1=O (stereo not shown) [Compound A52] | < 125 | 
17 | CN1CN(C23c4ccccc4CC2Cc2ccc(F)cc23)n2ccc(=O)c(O)c2C1=O (stereo not shown) [Compound A53] | < 125 | 
18 | CN1CN(C23c4cccc(F)c4CC2(C)Cc2c(F)cccc23)n2ccc(=O)c(O)c2C1=O (stereo not shown) [Compound A54] | < 125 | 
19 | CCN1CN(C23c4ccccc4CC2Cc2c(Cl)cccc23)n2ccc(=O)c(O)c2C1=O (stereo not shown) [Compound A55] | < 125 | 
20 | CCN1CN(C23c4ccccc4CC2(CC)Cc2c3ccc(F)c2F)n2ccc(=O)c(O)c2C1=O (stereo not shown) [Compound A56] | < 125 | 
21 | CCOC12Cc3ccccc3C1(N1CN(C)C(=O)c3c(O)c(=O)ccn31)c1ccccc1C2 (stereo not shown) [Compound A57] | < 125 | 

Row | Compound | EC50 (Influenza B virus, MDCK, 96 h) [nM] | EC50 [nM]
22 | O=C1c2c(O)c(=O)ccn2N(C23c4cccc(F)c4CC2Cc2c(F)cccc23)CN1CCF (stereo not shown) [Compound A58] | < 125 | 
23 | CN1C(=O)c2c(O)c(=O)ccn2N(C23c4cccc(F)c4CC2Cc2c(F)cccc23)C1CO (stereo not shown) [Compound A59] | < 125 | 
24 | CC1N(C)C(=O)c2c(O)c(=O)ccn2N1C12c3ccccc3CC1Cc1c(F)cccc12 (stereo not shown) [Compound A60] | < 125 | 
25 | O=C1c2c(O)c(=O)ccn2N(C23c4ccccc4CC2Cc2c3ccc(F)c2F)CN1C1CC1 (stereo not shown) [Compound A61] | < 125 | 
26 | COC12Cc3ccccc3C1(N1CN(C)C(=O)c3c(O)c(=O)ccn31)c1ccccc1C2 (stereo not shown) [Compound A62] | < 125 | 
27 | CN1CN(C23c4ccccc4CC2(C(F)F)Cc2ccccc23)n2ccc(=O)c(O)c2C1=O (stereo not shown) [Compound A63] | < 125 | 
28 | CC1N(C)C(=O)c2c(O)c(=O)ccn2N1C12c3ccccc3CC1Cc1c2ccc(F)c1F (stereo not shown) [Compound A64] | < 125 | 
29 | O=C1c2c(O)c(=O)ccn2N(C23c4ccccc4CC2Cc2c(F)cccc23)CN1C1CC1 (stereo not shown) [Compound A65] | < 125 | 
30 | CCN1CN(C23c4cccc(C)c4CC2Cc2c(F)cccc23)n2ccc(=O)c(O)c2C1=O (stereo not shown) [Compound A66] | < 125 | 
31 | Cc1cccc2c1CC1Cc3c(F)cccc3C21N1CN(C)C(=O)c2c(O)c(=O)ccn21 (stereo not shown) [Compound A67] | < 125 | 
32 | O=C1c2c(O)c(=O)ccn2N(C23c4ccccc4CC2Cc2c(F)cccc23)CN1CCF (stereo not shown) [Compound A68] | < 125 | 
33 | COCCN1CN(C23c4ccccc4CC2Cc2c(F)cccc23)n2ccc(=O)c(O)c2C1=O (stereo not shown) [Compound A69] | < 125 | 
34 | COCCN1CN(C23c4ccccc4CC2Cc2c3ccc(F)c2F)n2ccc(=O)c(O)c2C1=O (stereo not shown) [Compound A70] | < 125 | 
35 | O=C1c2c(O)c(=O)ccn2N(C23c4cccc(F)c4CC2Cc2c(F)cccc23)CN1CC(F)F (stereo not shown) [Compound A71] | < 125 | 
36 | O=C1c2c(O)c(=O)ccn2N(C23c4cccc(F)c4CC2Cc2c(F)cccc23)CN1CCCF (stereo not shown) [Compound A72] | < 125 | 
37 | CC1N(C)C(=O)c2c(O)c(=O)ccn2N1C12c3cccc(F)c3CC1Cc1c(F)cccc12 (stereo not shown) [Compound A73] | < 125 | 
38 | O=C1c2c(O)c(=O)ccn2N(C23c4ccccc4CC2Cc2c3ccc(F)c2F)CN1CCF (stereo not shown) [Compound A74] | < 125 | 
39 | O=C1c2c(O)c(=O)ccn2N(C23c4ccccc4CC2Cc2c(F)cccc23)CN1CC1CCOCC1 (stereo not shown) [Compound A75] | < 125 | 
40 | O=C1c2c(O)c(=O)ccn2N(C23c4cccc(F)c4CC2Cc2c(F)cccc23)CN1CC1CC1 (stereo not shown) [Compound A76] | < 125 | 
41 | CCN1CN(C23c4ccccc4CC2Cc2c3ccc(F)c2C)n2ccc(=O)c(O)c2C1=O (stereo not shown) [Compound A77] | 125 to 250 | 
42 | Cc1c(F)ccc2c1CC1Cc3ccccc3C21N1CN(C)C(=O)c2c(O)c(=O)ccn21 (stereo not shown) [Compound A78] | < 125 | 

Row | Compound | EC50 (Influenza B virus, MDCK, 96 h) [nM] | EC50 [nM]
43 | O=C1c2c(O)c(=O)ccn2N(C23c4ccccc4CC2Cc2c(F)cccc23)CN1CCCF (stereo not shown) [Compound A79] | < 125 | 
44 | O=C1c2c(O)c(=O)ccn2N(C23c4ccccc4CC2Cc2c3ccc(F)c2F)CN1CCCF (stereo not shown) [Compound A80] | < 125 | 
45 | O=C1c2c(O)c(=O)ccn2N(C23c4cccc(F)c4CC2Cc2c(F)cccc23)CN1CC1CCOCC1 (stereo not shown) [Compound A81] | 125 to 250 | 
46 | CCN1CN(C23c4ccccc4CC2Cc2c(C)cccc23)n2ccc(=O)c(O)c2C1=O (stereo not shown) [Compound A82] | 125 to 250 | 
47 | O=C1c2c(O)c(=O)ccn2N(C23c4ccccc4CC2Cc2c(F)cccc23)CN1CC(F)F (stereo not shown) [Compound A83] | < 125 | 
48 | O=C1c2c(O)c(=O)ccn2N(C23c4ccccc4CC2Cc2c3ccc(F)c2F)CN1CC(F)F (stereo not shown) [Compound A84] | 125 to 250 | 
49 | Cc1ccc2c(c1F)CC1Cc3ccccc3C21N1CN(C)C(=O)c2c(O)c(=O)ccn21 (stereo not shown) [Compound A85] | 250 to 375 | 
50 | O=C1c2c(O)c(=O)ccn2N(C23c4cccc(F)c4CC2Cc2c(F)cccc23)CN1CCc1ccccc1 (stereo not shown) [Compound A86] | < 125 | 
51 | O=C1c2c(O)c(=O)ccn2N(C23c4ccccc4CC2Cc2c(F)cccc23)CN1CCc1ccccc1 (stereo not shown) [Compound A87] | < 125 | 
52 | CC(C)N1CN(C23c4cccc(F)c4CC2(C)Cc2c(F)cccc23)n2ccc(=O)c(O)c2C1=O (stereo not shown) [Compound A89] | 375 to 500 | 
53 | CN1CN(C23c4ccccc4CC2Cc2c3ccc(F)c2Cl)n2ccc(=O)c(O)c2C1=O (stereo not shown) [Compound A90] |  | < 125
54 | CC(CCN1CN(C23c4ccccc4CC2Cc2c3ccc(F)c2F)n2ccc(=O)c(O)c2C1=O)c1ccccc1 (stereo not shown) [Compound A91] | 125 to 250 | 
55 | O=C1c2c(O)c(=O)ccn2N(C23c4ccccc4CC2Cc2c3ccc(F)c2F)CN1C1CCC1 (stereo not shown) [Compound A92, 3-Cyclobutyl-1-(1,2-difluoro-9a,10-dihydroindeno[1,2-a]inden-4b(9H)-yl)-5-hydroxy-2,3-dihydro-1H-pyrido[2,1-f][1,2,4]triazine-4,6-dione] | 250 to 375 | 
56 | O=C1c2c(O)c(=O)ccn2N(C23c4ccccc4CC2Cc2c(Cl)cccc23)CN1C1CC1 (stereo not shown) [Compound A93] | 125 to 250 | 
57 | CC1N(C)C(=O)c2c(O)c(=O)ccn2N1C12c3ccccc3CC1Cc1c(Cl)cccc12 (stereo not shown) [Compound A94] | 250 to 375 | 
58 | CCN1C(=O)c2c(O)c(=O)ccn2N(C23c4ccccc4CC2Cc2c(Cl)cccc23)C1C (stereo not shown) [Compound A95] | < 125 | 
59 | CN1CN(C23c4cc(F)ccc4CC2Cc2c(Cl)cccc23)n2ccc(=O)c(O)c2C1=O (stereo not shown) [Compound A96] | < 125 | 
60 | CCN1CN(C23c4ccccc4CC2Cc2c3ccc(C)c2F)n2ccc(=O)c(O)c2C1=O (stereo not shown) [Compound A98] | < 125 | 
61 | O=C1c2c(O)c(=O)ccn2N(C23c4ccccc4CC2Cc2c3ccc(F)c2F)CN1CC1CCCCC1 (stereo not shown) [Compound A99] | 250 to 375 | 
